Assay results published in US20110280940A1, “Di-Vanilloyl And Tri-Vanilloyl Derivatives For Use In Anti-Cancer Therapy” (priority 2008, published 2011).

Legend:
[1] = tested on: GSK-3; experiment: Kinase activity assay, GSK3; type: biochemical, porcine; conditions: 10 μM, 1% DMSO, 15 μM ATP; residual activity
Protocol: (§1) Buffer A: 10 mM MgCl2, 1 mM EGTA, 1 mM DTT, 25 mM Tris-HCl pH 7.5, 50 μg heparin/ml. Buffer C: 60 mM β-glycerophosphate, 15 mM p-nitrophenylphosphate, 25 mM Mops (pH 7.2), 5 mM EGTA, 15 mM MgCl2, 1 mM DTT, 1 mM sodium vanadate, 1 mM phenyl phosphate.
(§2) Kinase activities were assayed in Buffer A or C, at 30° C., at a final ATP concentration of 15 μM. Blank values were subtracted and activities expressed in % of the maximal activity, i.e. in the absence of inhibitors. Controls were performed with appropriate dilutions of DMSO.
GSK-3 (porcine brain, native) was assayed, as described for CDK1 but in Buffer A and using a GSK-3 specific substrate (GS-1: […]pEDEEE) (Seq. ID NO 1) (pS stands for phosphorylated serine) (Primot et al., 2000, Protein Expr. & Purif. 20 (3), 394-404). GS-1 was synthesized by Millegen (Labege, France).

[2] = target: T1, CDK2/cyclin A (Homo sapiens, UniProt P24941); experiment: Kinase activity assay, CDK2A; type: biochemical; conditions: 10 μM, 1% DMSO, 15 μM ATP; residual activity
T1 construct: made in house
Protocol: as §1, §2
CDK1/cyclin B (M phase starfish oocytes, native), CDK2/cyclin A, CDK2/cyclin E, CDK5/p25 and CDK7/cyclin H (human, recombinant) were prepared as previously described (Leclerc et al., 2001, J. Biol. Chem. 2001, 276, 251-260; Bach et al., 2005, J Biol Chem 280: 31208-31219). Their kinase activity was assayed in buffer C, with 1 mg histone H1/ml, in the presence of 15 μM [gamma-^33P] ATP (3,000 Ci/mmol; 10 mCi/ml) in a final volume of 30 μl. After 30 min incubation at 30° C., 25 μl aliquots of supernatant were spotted onto 2.5×3 cm pieces of Whatman P81 phosphocellulose paper, and, 20 sec later, the filters were washed five times (for at least 5 min each time) in a solution of 10 ml phosphoric acid/liter of water. The wet filters were counted in the presence of 1 ml ACS (Amersham) scintillation fluid.

COc1cc(C(=O)OCCOC(=O)c2ccc(O)c(OC)c2)ccc1O [DLT1, Ethane-1,2-diyl bis-(4-hydroxy-3-methoxybenzoate)]
% ENZYMATIC ACTIVITY, GSK3 [1]: 77%
% ENZYMATIC ACTIVITY, CDK2A [2]: 91%
